Source: PMC12113540, “Isolation and Characterization of L-Asparaginase-Producing Bacteria from the Arabian–Persian Gulf Region: First Report on Bacillus xiamenensis ASP-J1-4 as a Producer and Its Potential Application” (Marine Drugs, 2025)

Tested on: T1, ASP-J1-4 L-ASNase
T1 construct: gene ansZ; native enzyme from culture broth, acetone precipitation, dialysis, DEAE-Sepharose; 36 kDa (37 kDa in abstract) by SDS-PAGE; no L-glutaminase activity
Test: ammonia release, Nessler's reagent, A436; Lineweaver-Burk plot
Assay type: biochemical, Bacillus xiamenensis
Details: 0.02-2.42 mM L-ASN; regular assay conditions (pH and temperature not restated for kinetics)

Km: 150 µM
Structure (SMILES): NC(=O)C[C@H](N)C(=O)O [L-ASN]
